From article PMC12081876, “Identification of PTGR2 inhibitors as a new therapeutic strategy for diabetes and obesity” (EMBO Molecular Medicine, 2025)
Values joined by “and” are separate entries in the source; they are usually repeats but may differ in a detail not shown here. Identical values can stand only once.

How the values were obtained:
mPPARγ-downstream genes = assay: RT-qPCR of Glut4 and other mPPARγ-downstream genes in differentiated 3T3-L1 adipocytes; assay type: cell-based, mouse
Protocol: The cell lines, which were tested for mycoplasma contamination and authenticated, were purchased from the Bioresource Collection and Research Center, Taiwan. All cells were cultured at 37 °C, 5% CO2 in a humidified incubator. HEK293T cells were maintained in DMEM (cat. no. SH30003.02, HyClone) supplemented with 10% fetal bovine serum (FBS) (cat. no. 04-001-1A, Biological Industries) and 1% antibiotic/antimycotic solution (cat. no. SV30079.01, HyClone). 3T3-L1 preadipocytes were maintained at ~70% confluence in DMEM with 10% calf serum (cat. no. 16170078, Gibco) and 1% antibiotic/antimycotic solution. For adipocyte differentiation, confluent 3T3-L1 cells (defined as day 0) were exposed to an induction medium containing 10% FBS, 1 μM dexamethasone (cat. no. D4902, Sigma-Aldrich), and 1 μg/ml insulin (Humulin R, Eli Lilly) in DMEM with or without 0.5 mM isobutyl-methylxanthine (cat. no. sc-201188A, Santa Cruz Biotechnology) as indicated. After two days, the medium was replaced with DMEM containing 10% FBS and 1 μg/ml insulin and was replenished every two days until assay.
A total of 1 × 10^5 3T3-L1 preadipocytes were seeded in 6-well plates and differentiated for six days. The 3T3-L1 adipocytes were then harvested in 1 ml of REzol C&T (cat. no. PT-KP200CT, Protech), and total RNA was extracted according to the manufacturer’s instructions with slight modifications. Briefly, 200 μl of chloroform were added to 1 ml of sample in REzol, and samples were vigorously mixed by shaking for 30 s, followed by incubation at room temperature for 5 min. Then, samples were centrifuged at 12,000 × g for 15 min at 4 °C, and 400 μl of the upper aqueous phase were transferred to a new 1.5-ml tube. An equal volume of isopropanol was added. Samples were inverted several times for mixing and then centrifuged at 12,000 × g for 10 min at 4 °C. The RNA precipitate, which formed a pellet at the bottom of the 1.5-ml tube, was washed three times with 75% ethanol and air-dried for 15 min. Pellets were dissolved in RNase-free water. The concentration of RNA was measured using Nanodrop. cDNA was synthesized using a reverse transcription kit (cat. no. K1622, Thermo Scientific) using the oligo(dT)18 primers. RT-qPCR was performed in a 10-μl reaction with 50 ng cDNA and 0.2 μM primer using SYBR green reagent (cat. no. 11203ES08, YEASEN). Mouse peptidylprolyl isomerase A (Ppia) mRNA was used as the internal control. RT-qPCR reactions were performed using ABI 7900HT FAST (Applied Biosystems) and Sequence Detection Systems (SDS v2.3, Applied Biosystems). All qPCR reactions were run in duplicates. The primers used are listed in Appendix Table S3.

wild-type mPPARγ = target: T1, wild-type mPPARγ (Mus musculus, UniProt P37238); assay: PPRE reporter assay in HEK293T cells, wild-type mPPARγ; assay type: cell-based, murine; design: key to PPRE reporter activity, Fig 1M replicates: luciferase activity normalized to TK reporter signal; settings: for PPRE reporter activity, Fig 1M replicates: PPARg WT
T1 construct: host or cells: HEK293T
T1 sequence (P37238 1-505): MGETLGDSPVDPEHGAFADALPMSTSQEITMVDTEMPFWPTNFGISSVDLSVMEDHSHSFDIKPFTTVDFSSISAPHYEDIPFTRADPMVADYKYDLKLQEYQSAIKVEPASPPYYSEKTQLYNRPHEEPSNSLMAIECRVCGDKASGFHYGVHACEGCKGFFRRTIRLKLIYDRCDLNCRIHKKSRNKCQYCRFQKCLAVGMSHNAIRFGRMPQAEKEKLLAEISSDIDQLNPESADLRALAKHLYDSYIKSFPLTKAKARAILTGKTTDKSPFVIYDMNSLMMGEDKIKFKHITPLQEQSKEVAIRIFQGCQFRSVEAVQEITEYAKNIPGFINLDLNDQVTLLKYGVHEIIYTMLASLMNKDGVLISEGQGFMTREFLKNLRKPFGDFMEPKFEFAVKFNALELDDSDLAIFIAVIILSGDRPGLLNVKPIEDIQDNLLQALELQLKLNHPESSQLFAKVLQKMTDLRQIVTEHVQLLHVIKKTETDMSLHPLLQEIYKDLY
Protocol: For PPRE reporter assay, HEK293T cells were seeded in 24-well plates at 1 × 10^5 cells/well. […] The luciferase activity was measured by Luc-Pair™ Duo-Luciferase HS Assay Kit (cat. no. LF600, Promega, USA) and normalized to the TK reporter signal.

[1] = test system: HFHSD-fed obese C57BL6/J mice; assay: Adipocyte size and number in perigonadal fat (H&E stain); assay type: in vivo, mouse; settings: vs vehicle
Description: Tissues were fixed in 4% paraformaldehyde and then embedded in paraffin before sectioning and staining. The stained sections were scanned and analyzed using a MIRAX viewer (http://www.zeiss.de/mirax) and Image J software (http://rsbwed.nih.gov/ij/).

hPTGR2 = hPTGR2 (Homo sapiens, UniProt Q8N8N7); assay: Enzyme kinetics (Lineweaver–Burk) of hPTGR2 with 15-keto-PGE2; assay type: biochemical; design: made in house
Sequence of hPTGR2 (Q8N8N7 whole entry): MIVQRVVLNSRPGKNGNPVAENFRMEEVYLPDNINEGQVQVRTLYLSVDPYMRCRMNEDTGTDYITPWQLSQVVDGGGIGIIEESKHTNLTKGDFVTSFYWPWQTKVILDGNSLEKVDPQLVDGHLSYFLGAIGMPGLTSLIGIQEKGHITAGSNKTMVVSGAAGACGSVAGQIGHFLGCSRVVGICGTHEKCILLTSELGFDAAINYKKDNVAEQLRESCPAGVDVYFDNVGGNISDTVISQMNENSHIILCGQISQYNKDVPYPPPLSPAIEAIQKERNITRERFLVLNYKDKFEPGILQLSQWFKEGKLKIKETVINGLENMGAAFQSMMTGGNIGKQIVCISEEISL

Compound: CCCCCC(=O)CC[C@H]1[C@H](O)CC(=O)[C@@H]1C/C=C\CCCC(=O)O [13,14-dihydro-15-keto-PGE2]
- Adipoq RT-qPCR, Fig 1I replicates (mPPARγ-downstream genes; 13,14dh-15kPGE2 10μM): 1.319 and 1.153 and 1.286
- Cepba RT-qPCR, Fig 1H replicates (mPPARγ-downstream genes; 13,14dh-15kPGE2 10μM): 1.374 and 0.7769 and 0.716
- Acs RT-qPCR, Fig 1G replicates (mPPARγ-downstream genes; 13,14dh-15kPGE2 10): 1.301 and 1.081 and 1.404
- Cd36 RT-qPCR, Fig 1F replicates (mPPARγ-downstream genes; 13,14dh-15kPGE2 10): 1.404 and 1.223 and 0.9692
- Glut4 RT-qPCR, Fig 1C replicates (mPPARγ-downstream genes; 13,14dh-15kPGE2 10): 1.898 and 2.106 and 1.673
- Irs2 RT-qPCR, Fig 1D replicates (mPPARγ-downstream genes; 13,14dh-15kPGE2 10): 0.9456 and 0.6593 and 0.5678
- Sorbs1 RT-qPCR, Fig 1E replicates (mPPARγ-downstream genes; 13,14dh-15kPGE2 10): 1.1258 and 0.882 and 0.8066
- PPRE reporter activity, Fig 1M replicates (wild-type mPPARγ; 1314dh-15kPGE2 5uM): 0.8192 and 0.7939 and 0.9277
- PPRE reporter activity, Fig 1M replicates (wild-type mPPARγ; 1314dh-15kPGE2 10uM): 1.0416 and 0.7874 and 1.0502

Compound: CCCCCC(=O)/C=C/[C@H]1[C@H](O)CC(=O)[C@@H]1C/C=C\CCCC(=O)O [15-keto-PGE2, 15-keto-prostaglandin E2]
- Expression of Glut4 and other PPARγ-downstream genes (Irs2, Sorbs1, Cd36, Acs, Cebpa, Adipq) (mPPARγ-downstream genes; 3T3-L1 adipocytes): significantly increased
- Adipoq RT-qPCR, Fig 1I replicates (mPPARγ-downstream genes; 15kPGE2 1μM): 1.0415 and 1.163 and 1.453
- Cepba RT-qPCR, Fig 1H replicates (mPPARγ-downstream genes; 15kPGE2 1μM): 1.584 and 1.855 and 1.4452
- Adipoq RT-qPCR, Fig 1I replicates (mPPARγ-downstream genes; 15kPGE2 5μM): 2.354 and 2.11 and 2.081
- Cepba RT-qPCR, Fig 1H replicates (mPPARγ-downstream genes; 15kPGE2 5μM): 1.743 and 1.998 and 2.055
- Adipoq RT-qPCR, Fig 1I replicates (mPPARγ-downstream genes; 15kPGE2 10μM): 2.022 and 2.345 and 2.444
- Cepba RT-qPCR, Fig 1H replicates (mPPARγ-downstream genes; 15kPGE2 10μM): 2.675 and 2.195 and 2.109
- Acs RT-qPCR, Fig 1G replicates (mPPARγ-downstream genes; 15kPGE2 1): 1.074 and 1.165 and 0.8587
- Cd36 RT-qPCR, Fig 1F replicates (mPPARγ-downstream genes; 15kPGE2 1): 1.042 and 1.096 and 0.9399
- Glut4 RT-qPCR, Fig 1C replicates (mPPARγ-downstream genes; 15kPGE2 1): 1.309 and 1.263 and 1.257
- Irs2 RT-qPCR, Fig 1D replicates (mPPARγ-downstream genes; 15kPGE2 1): 1.164 and 1.43 and 1.116
- Sorbs1 RT-qPCR, Fig 1E replicates (mPPARγ-downstream genes; 15kPGE2 1): 1.214 and 1.379 and 1.0658
- Acs RT-qPCR, Fig 1G replicates (mPPARγ-downstream genes; 15kPGE2 5): 1.251 and 1.575 and 1.53
- Cd36 RT-qPCR, Fig 1F replicates (mPPARγ-downstream genes; 15kPGE2 5): 1.448 and 1.619 and 1.287
- Glut4 RT-qPCR, Fig 1C replicates (mPPARγ-downstream genes; 15kPGE2 5): 2.797 and 2.997 and 3.11
- Irs2 RT-qPCR, Fig 1D replicates (mPPARγ-downstream genes; 15kPGE2 5): 1.3621 and 1.275 and 1.386
- Sorbs1 RT-qPCR, Fig 1E replicates (mPPARγ-downstream genes; 15kPGE2 5): 1.2593 and 1.694 and 1.702
- Acs RT-qPCR, Fig 1G replicates (mPPARγ-downstream genes; 15kPGE2 10): 2.4974 and 2.133 and 2.44
- Cd36 RT-qPCR, Fig 1F replicates (mPPARγ-downstream genes; 15kPGE2 10): 2.006 and 2.309 and 1.915
- Glut4 RT-qPCR, Fig 1C replicates (mPPARγ-downstream genes; 15kPGE2 10): 7.333 and 8.598 and 7.543
- Irs2 RT-qPCR, Fig 1D replicates (mPPARγ-downstream genes; 15kPGE2 10): 2.078 and 2.094 and 1.997
- Sorbs1 RT-qPCR, Fig 1E replicates (mPPARγ-downstream genes; 15kPGE2 10): 2.379 and 1.942 and 1.911
- PPRE reporter activity, Fig 1M replicates (wild-type mPPARγ; 15kPGE2 1uM): 0.8257 and 0.8644 and 0.9986
- PPRE reporter activity, Fig 1M replicates (wild-type mPPARγ; 15kPGE2 5uM): 1.6663 and 1.771 and 1.8768
- PPRE reporter activity, Fig 1M replicates (wild-type mPPARγ; 15kPGE2 10uM): 2.316 and 1.9846 and 1.9282
- PPRE reporter activity, wild-type mPPARγ (wild-type mPPARγ; HEK293T): dose-dependently increases the reporter activity of PPARγ
- adipocyte size ([1]; 40 mg/kg/day ip): smaller
- number of adipocytes ([1]; 40 mg/kg/day ip): no difference
- Km (hPTGR2; read-out: Km between 15-keto-PGE2 and hPTGR2, without BPRPT0245): 29.1 ± 0.77 µM

Compound: Cc1[nH]c2nc(C(C)N3CCN(c4ccccc4)CC3)nn2c(=O)c1Cc1ccc(F)cc1 (stereo not shown) [BPRPT0245]
- adipocyte number ([1]; 100 mg/kg/day oral): not changed
- adipocyte size ([1]; 100 mg/kg/day oral): reduced
- mode of inhibition (Lineweaver–Burk plot) (hPTGR2; BPRPT0245 50 nM): competitive hPTGR2 inhibitor
- Lineweaver-Burk plot value, average (Figure 5H) (hPTGR2; BPRPT0245 50 nM, 15-keto-PGE2(um) 0.01): 0.05189
- Lineweaver-Burk plot value, average (Figure 5H) (hPTGR2; BPRPT0245 50 nM, 15-keto-PGE2(um) 0.0142857): 0.06506
- Lineweaver-Burk plot value, average (Figure 5H) (hPTGR2; BPRPT0245 50 nM, 15-keto-PGE2(um) 0.02): 0.06763
- Lineweaver-Burk plot value, average (Figure 5H) (hPTGR2; BPRPT0245 50 nM, 15-keto-PGE2(um) 0.025): 0.07832
- Lineweaver-Burk plot value, average (Figure 5H) (hPTGR2; BPRPT0245 50 nM, 15-keto-PGE2(um) 0.0333333): 0.1063
- Lineweaver-Burk plot value, average (Figure 5H) (hPTGR2; BPRPT0245 50 nM, 15-keto-PGE2(um) 0.05): 0.1377
- Lineweaver-Burk plot value, average (Figure 5H) (hPTGR2; BPRPT0245 50 nM, 15-keto-PGE2(um) 0.1): 0.2333
- Vmax (change on addition of inhibitor) (hPTGR2; with BPRPT0245 50 nM): remained unchanged
